A short description of this data set: photoluminescence quantum yield (fraction); solvent given as SMILES.

For `CC[N+]1(CC)CN2C(=N1)C(C(=O)O)=Cc1cc(OC)c(OC)cc12`, the photoluminescence quantum yield (in O) was found to be 0.859.

Turning to `CN(C)c1cc(-c2ccccc2)cc2ccccc12`, the photoluminescence quantum yield (in ClCCl) came to 0.52.

For the molecule `Cc1c2c(c(C)c3ccccc13)-c1cc3nc4ccccc4nc3cc1-2`, the photoluminescence quantum yield (in ClC(Cl)Cl) amounted to 0.72.

In the case of `C[C@]12SC(=O)C=C1c1nc(-c3ccc(O)cc3)[nH]c1C1=CC(=O)S[C@@]12C`, under “in CC#N”, the photoluminescence quantum yield was 0.16.

Molecule `F[B-]1(F)OC(c2ccccc2)=Cc2c3ccccc3c3ccccc3[n+]21` displayed a photoluminescence quantum yield (in ClC(Cl)Cl) of 0.131.

`C(=C\c1cc2ccccc2c2ccccc12)/c1c2ccccc2cc2ccccc12`: the photoluminescence quantum yield (in C1CCOC1) was 0.56.

`FC(F)(F)c1ccc(-c2ncc3ccccn23)cc1` showed a photoluminescence quantum yield (in ClC(Cl)Cl) of 0.04.

For `COC(=O)c1ccc(NC(=O)c2ccc(N(C)C)cc2)cc1`, the photoluminescence quantum yield is, setting by setting: (in C1CCCCC1) 0.0148; (in C1CCOC1) 0.198; (in CC#N) 0.0209; (in CCOCC) 0.0512.

Turning to `COc1cc(C=C(C#Cc2ccccc2)C#Cc2ccccc2)c(OC)cc1C=C(C#Cc1ccccc1)C#Cc1ccccc1`, the photoluminescence quantum yield (in ClC(Cl)Cl) came out at 0.34.

With `COc1ccc(-c2csc(/C(C#N)=C/c3ccc(Cl)cc3)n2)cc1`, where the note is “in CC#N”, the photoluminescence quantum yield was found to be 0.048.

Turning to `N#CC(C#N)=Cc1ccc(-c2ccc(O)c(-c3nc4ccccc4s3)c2)o1`, the photoluminescence quantum yield amounted to 0.0357 (in CCO) and 0.016 (in ClCCl).

As to `CCOC(=O)C1=C(C)NC2=C(C(=O)c3ccccc32)C1c1ccc(N(C)C)cc1` (configuration not stated), the photoluminescence quantum yield is, setting by setting: (in C1CCOC1) 0.34; (in C1COCCO1) 0.43; (in CC#N) 0.3; (in CCO) 0.092; (in CN(C)C=O) 0.33; (in CO) 0.035. Further, the photoluminescence quantum yield reads like this: (in CS(C)=O) 0.29; (in ClC(Cl)(Cl)Cl) 0.16; (in ClC(Cl)Cl) 0.44; (in ClCCl) 0.4.

`COc1ccc(C2=C(c3ccc(C)cc3)C(c3ccccc3)=[N+]3C2=Nc2c(-c4ccc(OC)cc4)c(-c4ccc(C)cc4)c(-c4ccccc4)n2[B-]3(F)F)cc1` had a photoluminescence quantum yield (in Cc1ccccc1) of 0.01.

Consider `CCCCc1ccc2c(c1)c1ccc3cccc4c3c1c1c2c2cccc3ccc5c6cc(CCCC)ccc6c4c1c5c32`, for which, for the setting “in ClCCl”, the photoluminescence quantum yield was found to be 0.31.

For the molecule `COc1ccc(-c2nc3ccccc3nc2-c2ccc(OC)cc2)cc1`, under “in ClC(Cl)Cl”, the photoluminescence quantum yield is 0.18.

Turning to `CCc1c(C)c2n(c1C)[B-](F)(F)[N+]1=C(C=C3c4ccccc4-c4ccccc43)C=CC1=C2C`, for the setting “in C1CCCCC1”, the photoluminescence quantum yield was determined as 0.73.

For the molecule `O=C1c2ccc(-c3ccc(N(c4ccccc4)c4ccccc4)cc3)cc2C(=O)c2ccc(-c3ccc(N(c4ccccc4)c4ccccc4)cc3)cc21`, the photoluminescence quantum yield (in Cc1ccccc1) turned out to be 0.59 and the photoluminescence quantum yield (in c1ccc2c(c1)c1ccccc1n2-c1ccc(-c2ccc(-n3c4ccccc4c4ccccc43)cc2)cc1) turned out to be 0.8.

`CC1=c2cc3c(cc2=[N+]2C1=Cc1c4ccccc4c(C)n1[B-]2(F)F)C1=Cc2c4ccccc4c(C)n2[B-](F)(F)[N+]1=C3C` gave a photoluminescence quantum yield (in ClC(Cl)Cl) of 0.04.

Molecule `CC(C)[Si](C#Cc1c2nc3ccccc3nc2c(C#C[Si](C(C)C)(C(C)C)C(C)C)c2nc3c4ccccc4c(=O)c4ccccc4c3nc12)(C(C)C)C(C)C` showed a photoluminescence quantum yield (in ClCCl) of 0.5.

In the case of `CC(C)(C)c1cc2c3c(c1)c1cc(C(C)(C)C)cc4c1n3B1c3c-2cccc3-c2cc(C(C)(C)C)cc3c5cc(C(C)(C)C)cc-4c5n1c23`, for the setting “in C1CCOC1”, the photoluminescence quantum yield is 0.25.

As for `CCCCCCCCCCCCCCCCCCOc1ccc([B-]23NC(c4ccccc4)=Nc4cccc([n+]42)N=C(c2ccccc2)N3)cc1`, under “in ClCCl”, the photoluminescence quantum yield stood at 0.14.

For the setting “in C1CCOC1”, `c1cc2ccc1-c1ccc(cc1)-c1ccc(s1)-c1ccc(cc1)-c1ccc(cc1)-c1ccc(s1)-c1ccc(cc1)-c1ccc(cc1)-c1ccc(s1)-c1ccc(cc1)-c1ccc(cc1)-c1ccc-2s1` had a photoluminescence quantum yield of 0.37.

`C#CCOc1ccc(/C=C/C2=[N+]3C(=C(c4ccc(N(C)C)cc4)c4c(C)cc(C)n4[B-]3(F)F)C(C)=C2)cc1` registered a photoluminescence quantum yield (in CO) of 0.66.
